The target of one assay is T1, MASP-2 (CCP1-CCP2-SP) (Homo sapiens, UniProt O00187).
T1 construct: 15 μL of Enzyme MASP-2 (CCP1-CCP2-SP) in Assay Buffer
Nature of the assay: Enzymatic assay for MASP-2 inhibitory activity (fluorogenic substrate). The assay is classed as biochemical. Summed up: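 Fluorescence was normalized between no-enzyme and DMSO-only controls to derive % activity, with IC50 taken as equivalent to Ki except for tight-binding inhibitors. Reactions ran 20 min at room temperature in HEPES pH 7.4/NaCl/Tween 20 buffer, using the C2-derived fluorogenic substrate, before acetic acid stop.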

The next assay has as its target T2, human α-thrombin (Homo sapiens, UniProt P00734).
T2 construct: enzyme (human α-thrombin (BioPharm® Lab.)) in assay buffer; purchased BioPharm® Lab
The assay can be described thus: Enzymatic assay for thrombin (fluorogenic peptide substrate Boc-VPR-AMC). The class given is biochemical. The essentials:
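Assay conditions kept the reaction linear in time, enzyme and substrate, so IC50 approximated Ki apart from tight- or slow-binding cases. Boc-VPR-AMC cleavage by human α-thrombin proceeded 20 min at room temperature in Hepes pH 7.4/NaCl/Tween 20 buffer, then was acid-quenched and read by fluorescence.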

The text below walks through data of patent US20250122225A1, “MASP-2 INHIBITORS AND METHODS OF USE” (Omeros Corporation, priority 2023, published 2025).

Counter-ions that a name gives are not always drawn.

T1 sequence (O00187 445-686 limits assumed): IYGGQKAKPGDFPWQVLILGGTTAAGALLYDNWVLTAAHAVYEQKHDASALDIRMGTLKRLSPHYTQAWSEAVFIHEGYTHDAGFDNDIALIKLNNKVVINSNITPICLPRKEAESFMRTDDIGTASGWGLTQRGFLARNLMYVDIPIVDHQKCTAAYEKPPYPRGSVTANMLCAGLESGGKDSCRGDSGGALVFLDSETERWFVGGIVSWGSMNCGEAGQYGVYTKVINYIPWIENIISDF
T1 sequence (O00187 287-444 partner limits assumed): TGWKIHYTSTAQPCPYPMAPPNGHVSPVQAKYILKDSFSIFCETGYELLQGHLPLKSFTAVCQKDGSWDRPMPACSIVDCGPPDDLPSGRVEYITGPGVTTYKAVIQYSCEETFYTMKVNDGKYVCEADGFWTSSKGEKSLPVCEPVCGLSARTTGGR

A word on the Ki: it is the dissociation constant of the complex between target and ligand, obtained from inhibition or displacement. `CC[C@H]1C[C@@H](C(=O)NCc2ccc(N)nc2C)n2c1cnc(NCc1ccccc1)c2=O` [Compound 154, (6S,8S)-N-((6-amino-2-methylpyridin-3-yl)methyl)-3-(benzylamino)-8-ethyl-4-oxo-4,6,7,8-tetrahydropyrrolo[1,2-a]pyrazine-6-carboxamide]: the Ki on MASP-2 (CCP1-CCP2-SP) and on human α-thrombin was less than 500 nM each time.

Turning to `Cc1cc(F)cc(CNc2ncc3n(c2=O)[C@@H](C(=O)NCc2ccc(N)nc2C)CC3)c1` [Compound 163, (R)—N-((6-amino-2-methylpyridin-3-yl)methyl)-3-((3-fluoro-5-methylbenzyl)amino)-4-oxo-4,6,7,8-tetrahydropyrrolo[1,2-a]pyrazine-6-carboxamide], the Ki on MASP-2 (CCP1-CCP2-SP) and at human α-thrombin was less than 500 nM throughout.

In the case of `Cc1cc(F)cc(CNc2ncc3n(c2=O)[C@H](C(=O)NCc2cnc(N)c(Cl)c2)CC3)c1` [Compound 192, (S)-N-((6-amino-5-chloropyridin-3-yl)methyl)-3-((3-fluoro-5-methylbenzyl)amino)-4-oxo-4,6,7,8-tetrahydropyrrolo[1,2-a]pyrazine-6-carboxamide trifluoroacetate], the values for the Ki at MASP-2 (CCP1-CCP2-SP) and on human α-thrombin were less than 500 nM and 500 to 2500 nM, respectively.

Take `N=C(N)c1ccc(CNC(=O)[C@@H]2CCc3c(Cl)nc(NCc4ccccc4)c(=O)n32)cc1` [Compound 243]: the Ki at MASP-2 (CCP1-CCP2-SP) and at human α-thrombin was less than 500 nM each time.

For `Cc1ccc(C)c([C@@H](C)Nc2ncc3n(c2=O)[C@H](C(=O)NCc2cc4c(s2)CNC4)CC3)c1` [Compound 253, (S)—N-((5,6-dihydro-4H-thieno[2,3-c]pyrrol-2-yl)methyl)-3-(((R)-1-(2,5-dimethylphenyl)ethyl)amino)-4-oxo-4,6,7,8-tetrahydropyrrolo[1,2-a]pyrazine-6-carboxamide], the inhibition constant Ki on MASP-2 (CCP1-CCP2-SP) and at human α-thrombin was less than 500 nM in each case.

As for `Cc1ccc(F)cc1CNc1ncc2n(c1=O)[C@H](C(=O)N[C@H](C)c1ccc(N)nc1)CC2` [Compound 196, (S)-N-((R)-1-(6-aminopyridin-3-yl)ethyl)-3-((5-fluoro-2-methylbenzyl)amino)-4-oxo-4,6,7,8-tetrahydropyrrolo[1,2-a]pyrazine-6-carboxamide trifluoroacetate], the Ki on MASP-2 (CCP1-CCP2-SP) is less than 500 nM; on human α-thrombin, 10000 to 25000 nM.

On to `CC(C)(C)[C@@H](Nc1ncc2n(c1=O)[C@H](C(=O)NCc1cc3c(s1)CNC3)CC2)c1ccc(F)cc1` [Compound 280, (S)—N-((5,6-dihydro-4H-thieno[2,3-c]pyrrol-2-yl)methyl)-3-(((R)-1-(4-fluorophenyl)-2,2-dimethylpropyl)amino)-4-oxo-4,6,7,8-tetrahydropyrrolo[1,2-a]pyrazine-6-carboxamide], for which the Ki at MASP-2 (CCP1-CCP2-SP) and on human α-thrombin was less than 500 nM in each case.

For the molecule `CC[C@H]1C[C@@H](C(=O)NCc2cc3cnc(C)cc3[nH]2)n2c1cnc(NCc1cc(C)cc(C)c1)c2=O` [Compound 129, (6S,8S)-3-((3,5-dimethylbenzyl)amino)-8-ethyl-N-((6-methyl-1H-pyrrolo[3,2-c]pyridin-2-yl)methyl)-4-oxo-4,6,7,8-tetrahydropyrrolo[1,2-a]pyrazine-6-carboxamide], the Ki was less than 500 nM on MASP-2 (CCP1-CCP2-SP) and 10000 to 25000 nM on human α-thrombin.

In the case of `COCCCCNc1nc(Cl)c2n(c1=O)[C@H](C(=O)NCc1ccc(N)nc1C)CC2` [Compound 2, (S)-N-((6-amino-2-methylpyridin-3-yl)methyl)-1-chloro-3-((4-methoxybutyl)amino)-4-oxo-4,6,7,8-tetrahydropyrrolo[1,2-a]pyrazine-6-carboxamide], the Ki on MASP-2 (CCP1-CCP2-SP) was less than 500 nM; on human α-thrombin, 2500 to 10000 nM.

With `O=C(NCc1cc2cnccc2[nH]1)[C@@H]1CC2(CCCC2)c2c(Cl)nc(NCc3ccccc3)c(=O)n21` [Compound 231, (S)—N-((1H-pyrrolo[3,2-c]pyridin-2-yl)methyl)-3′-(benzylamino)-1′-chloro-4′-oxo-6′,7′-dihydro-4′H-spiro[cyclopentane-1,8′-pyrrolo[1,2-a]pyrazine]-6′-carboxamide trifluoroacetate], the Ki on MASP-2 (CCP1-CCP2-SP) was less than 500 nM; on human α-thrombin, 10000 to 25000 nM.

With `Cc1ccc(CNc2ncc3n(c2=O)[C@H](C(=O)NCc2ccc(N)nc2C)CC3)cc1C` [Compound 38, (S)-N-((6-amino-2-methylpyridin-3-yl)methyl)-3-((3,4-dimethylbenzyl)amino)-4-oxo-4,6,7,8-tetrahydropyrrolo[1,2-a]pyrazine-6-carboxamide], the Ki at MASP-2 (CCP1-CCP2-SP) and at human α-thrombin was less than 500 nM each time.

With `Cc1cccc(C2(Nc3nc(Cl)c4n(c3=O)[C@H](C(=O)NCc3cc5cnccc5[nH]3)CC4)CC2)c1` [Compound 110, (S)—N-((1H-pyrrolo[3,2-c]pyridin-2-yl)methyl)-1-chloro-4-oxo-3-((1-(m-tolyl)cyclopropyl)amino)-4,6,7,8-tetrahydropyrrolo[1,2-a]pyrazine-6-carboxamide trifluoroacetate], the Ki on MASP-2 (CCP1-CCP2-SP) is less than 500 nM; on human α-thrombin, 2500 to 10000 nM.

With `Cc1nc(N)ccc1CNC(=O)[C@@H]1CCc2cnc(NCc3cn4c(n3)CCCC4)c(=O)n21` [Compound 168, (S)-N-((6-amino-2-methylpyridin-3-yl)methyl)-4-oxo-3-(((5,6,7,8-tetrahydroimidazo[1,2-a]pyridin-2-yl)methyl)amino)-4,6,7,8-tetrahydropyrrolo[1,2-a]pyrazine-6-carboxamide trifluoroacetate], the values for the Ki on MASP-2 (CCP1-CCP2-SP) and at human α-thrombin were 500 to 2500 nM and 2500 to 10000 nM, respectively.

Take `C[C@@H](NC(=O)[C@@H]1CCc2cnc(N[C@@H](c3ccccc3)C(C)(C)C)c(=O)n21)c1cc2c(s1)CNC2` [Compound 269, (S)-N-((R)-1-(5,6-dihydro-4H-thieno[2,3-c]pyrrol-2-yl)ethyl)-3-(((R)-2,2-dimethyl-1-phenylpropyl)amino)-4-oxo-4,6,7,8-tetrahydropyrrolo[1,2-a]pyrazine-6-carboxamide trifluoroacetate]: the Ki at MASP-2 (CCP1-CCP2-SP) is less than 500 nM; at human α-thrombin, 2500 to 10000 nM.

On to `Cc1cccc(CNc2ncc3n(c2=O)[C@H](C(=O)NCc2cc4cnccc4[nH]2)CC3)c1C` [Compound 59, (S)-N-((1H-pyrrolo[3,2-c]pyridin-2-yl)methyl)-3-((2,3-dimethylbenzyl)amino)-4-oxo-4,6,7,8-tetrahydropyrrolo[1,2-a]pyrazine-6-carboxamide], for which the Ki was less than 500 nM on MASP-2 (CCP1-CCP2-SP) and 500 to 2500 nM on human α-thrombin.

As to `C[C@H](NC(=O)[C@@H]1CCc2cnc(N[C@@H](c3ccccc3)C(C)(C)C)c(=O)n21)c1cc2c(s1)CNC2` [Compound 270, (S)-N-((S)-1-(5,6-dihydro-4H-thieno[2,3-c]pyrrol-2-yl)ethyl)-3-(((R)-2,2-dimethyl-1-phenylpropyl)amino)-4-oxo-4,6,7,8-tetrahydropyrrolo[1,2-a]pyrazine-6-carboxamide trifluoroacetate], the Ki lay within 2500 to 10000 nM at MASP-2 (CCP1-CCP2-SP) and 10000 to 25000 nM at human α-thrombin.

Consider `Cc1cc(C)cc(CNc2ncc3n(c2=O)[C@H](C(=O)NCc2ccccn2)CC3)c1` [Compound 40, (S)-3-((3,5-dimethylbenzyl)amino)-4-oxo-N-(pyridin-2-ylmethyl)-4,6,7,8-tetrahydropyrrolo[1,2-a]pyrazine-6-carboxamide trifluoroacetate], for which the Ki was 10000 to 25000 nM at MASP-2 (CCP1-CCP2-SP) and more than 25000 nM on human α-thrombin.

As to `O=C(NCc1cc2cnccc2[nH]1)[C@@H]1C[C@H](Cc2ccccc2)c2cnc(NC3CCC3)c(=O)n21` [Compound 142, (6S,8S)-N-((1H-pyrrolo[3,2-c]pyridin-2-yl)methyl)-8-benzyl-3-(cyclobutylamino)-4-oxo-4,6,7,8-tetrahydropyrrolo[1,2-a]pyrazine-6-carboxamide], the Ki on MASP-2 (CCP1-CCP2-SP) is less than 500 nM; on human α-thrombin, 2500 to 10000 nM.

For the molecule `Cc1cc(C)cc(CNc2ncc3n(c2=O)[C@H](C(=O)NCc2cc(Cl)ccc2-n2cnnn2)CC3)c1` [Compound 284, (S)-N-(5-chloro-2-(1H-tetrazol-1-yl)benzyl)-3-((3,5-dimethylbenzyl)amino)-4-oxo-4,6,7,8-tetrahydropyrrolo[1,2-a]pyrazine-6-carboxamide], the Ki on MASP-2 (CCP1-CCP2-SP) and at human α-thrombin was less than 500 nM throughout.

On to `O=C(NCc1cc2cnccc2[nH]1)[C@@H]1CCc2c(Cl)nc(NCC3(c4ccccc4)COC3)c(=O)n21` [Compound 251], for which the Ki is less than 500 nM on MASP-2 (CCP1-CCP2-SP) and 500 to 2500 nM at human α-thrombin.

Take `N#Cc1cccc(CNc2nc(Cl)c3n(c2=O)[C@H](C(=O)NCc2cc4cnccc4[nH]2)CC3)c1` [Compound 144, (S)-N-((1H-pyrrolo[3,2-c]pyridin-2-yl)methyl)-1-chloro-3-((3-cyanobenzyl)amino)-4-oxo-4,6,7,8-tetrahydropyrrolo[1,2-a]pyrazine-6-carboxamide]: the Ki on MASP-2 (CCP1-CCP2-SP) is less than 500 nM; on human α-thrombin, 2500 to 10000 nM.

As for `CC(C)[C@@H](Nc1ncc2n(c1=O)[C@H](C(=O)N[C@H](C)c1cc3c(s1)CNC3)CC2)c1ccccc1` [Compound 274, (S)-N-((R)-1-(5,6-dihydro-4H-thieno[2,3-c]pyrrol-2-yl)ethyl)-3-(((R)-2-methyl-1-phenylpropyl)amino)-4-oxo-4,6,7,8-tetrahydropyrrolo[1,2-a]pyrazine-6-carboxamide trifluoroacetate], the Ki at MASP-2 (CCP1-CCP2-SP) was less than 500 nM; at human α-thrombin, 500 to 2500 nM.

For the molecule `Cc1cc(F)cc(CNc2nc(Cl)c3n(c2=O)[C@H](C(=O)NCc2ccc(N)nc2C)CC3)c1` [Compound 212, (S)—N-((6-amino-2-methylpyridin-3-yl)methyl)-1-chloro-3-((3-fluoro-5-methylbenzyl)amino)-4-oxo-4,6,7,8-tetrahydropyrrolo[1,2-a]pyrazine-6-carboxamide trifluoroacetate], the Ki on MASP-2 (CCP1-CCP2-SP) is less than 500 nM; at human α-thrombin, 2500 to 10000 nM.
